This assay relates to MDCK cell line. Briefly: MTT analysis of kidney-protection effect against cisplatin-induced renal toxicity. The format is cell-based, canine. To be noted: treated with cisplatin only (5 μM), MTT 24 hours after cisplatin; relative to negative control (neither cisplatin nor EPS) set at 100%. Here is the method:
MTT analysis was conducted to confirm the kidney-protection effect of the EPS prepared in Preparation Example 4 against renal toxicity caused by an anti-cancer agent.
First, MDCK cell line (Korean Cell Line Bank, Korea) was cultured in DMEM medium supplemented with 10% fetal bovine serum, 100 μg/mL streptomycin and 100 U/mL penicillin at 37° C. and 5% CO2. 100 μL each of the cultured cells was dispensed to 96-well plate at 2×10^4 cells/mL, and cultured for 24 hours. The EPS was added thereto to a concentration of 25, 50 or 250 μg/mL, and 2 hours thereafter, 5 μM of cisplatin was added thereto.
24 hours after cisplatin was added, 10 μL of MTT (1 mg/mL) dissolved in PBS was added to each well, subjected to reaction for 4 hours. After 4 hours, the formation of formazan was confirmed, and the supernatant was completely removed so that formazan may not be dispersed. Then, the resultant was added to dissolve, in 100 μL of DMSO and dissolved, followed by the measurement of the absorbance at 570 nm using ELISA reader.
The results are shown in FIG. 1 as relative values when the value of the negative control group treated with neither cisplatin nor EPS was set at 100%.

These results are taken from patent publication US9717769B2, “Method for protecting kidney function” (FUGENBIOPHARMA CO., LTD., priority 2015, dated 2017).

Consider `N.N.[Cl][Pt][Cl]` [cisplatin, cis-diammine-dichloroplatinum [II]], for which the “survival rate of MDCK cell line” value was “about 60%”.
